The text below walks through data of patent US20230193197A1, “TUNABLE PLANT-BASED MATERIALS VIA IN VITRO CELL CULTURE USING A ZINNIA ELEGANS MODEL” (FORAY Bioscience, Inc., priority 2021, published 2023).

The experiment has as its system Z. elegans cells. Briefly: Full factorial hormone concentration experiment in liquid culture (live fraction, lignification, enlargement, elongation metrics). The class given is cell-based, Zinnia elegans. The conditions noted are these: for cumulative levels of lignification / live fraction at day 12: NAA at 0.5 mg ml^-1 together with BAP at 1 mg ml^-1, compared across 16 hormone combinations. Here is the method: In an embodiment, Z. elegans cells may be isolated by the maceration of young Zinnia leaves (e.g., leaves 114). Leaves collected from approximately 14 day-old Zinnia plants may be rinsed under running tap water for 5 min. Leaves may be sterilized in a solution of 5 ml commercial bleach (Clorox), 95 ml of deionized water, and […] of Tween 20 (Sigma Aldrich) for 5 min. Subsequently, leaves may be rinsed thoroughly with sterile distilled water, sliced into strips, and ground between the surfaces of a small sieve and a spoon (e.g., a stainless steel spoon). The leaf matter may be intermittently rinsed with ZE-M media and the rinsate may be collected in a bowl positioned beneath the supporting sieve. After completion of grinding, the rinsate may be collected and filtered through a […] cell strainer (e.g., manufactured by Fisher Scientific) to remove large debris. This strainer is just but an example and should not be considered limiting. The filtered solution may be centrifuged at 100 g for 8 min and resulting supernatant removed if more concentrated cell solutions are desired. Liquid cultures may be maintained at concentrations between 250,000 and 500,000 cells ml^−1 at 3 ml per well in a 6-well plate wrapped in parafilm. Cultures may be maintained at 22° C. in the dark on an orbital shaker operating at 80 rpm.
Cells may be cultured in this manner for 48 hours in the low-hormone media before transference to specialized experimental media. An incubation period may improve differentiation rates when cells may be later exposed to elevated levels of auxin and cytokinin. Auxins may be plant hormones produced in the stem tip that promote cell elongation. Cytokinins may be a class of plant hormones that promote cell division, or cytokinesis. For dispersed gel cultures, cells may be extracted and maintained in low-hormone, liquid medium for a 48 hour acclimation period, as previously described, prior to transference to a gel medium 108 solidified by the addition of Gelzan C M (e.g., manufactured by Sigma Aldrich) at a final concentration of 3 g L^−1. Cultures may be sealed off with parafilm and maintained at 22° C. in the dark.
For liquid cultures, well-mixed […] aliquots of cell suspension may be transferred to 48 well plates for imaging. A […] volume of a fluorescein diacetate (FDA) stock solution (prepared at 2 mg ml^−1 acetone) may be added to the cell suspension and incubated in the dark for 20 min. After the incubation period, […] of calcofluor white (CW) may be added and the solution rested for an additional 5 min prior to imaging. A Zeiss LSM780 confocal microscope, for example, may be set to excitation/emission wavelengths of […]/440 nm (DAPI filter) for CW and 490 nm/526 nm for FDA for imaging. Gel cultures may be stained through a similar dual-step process after wetting the gel surface with a small amount of liquid medium. Relative staining volumes may be the same, but increased incubation times may be involved (e.g., incubation times were approximately 45 min for FDA incubation, 45 min for CW incubation). Image analysis may be performed using Image-i. The thresholding tool may be used to select the relevant cell areas. To ensure robustness of the analyzed data ranges, the images corresponding to the highest and lowest values for a single sample may be analyzed a total of 3 times, with the repeated results averaged to yield a final value for the given image. […]

Consider `c1ccc(CNc2ncnc3nc[nH]c23)cc1` [BAP, 6-benzylaminopurine], for which the “cumulative levels of lignification” value is given as “highest” and the “live fraction at day 12” value is “lowest”. Also, the elongation metric result (BAP elevated, across most NAA concentrations) is on record as “reduced”.

For the compound `O=C(O)Cc1cccc2ccccc12` [NAA, a-naphthaleneacetic acid], the “cumulative levels of lignification” value is recorded as “highest” and the “live fraction at day 12” value was “lowest”.
